In patent US11279733B2, “Peptide antibiotics” (priority 2017, dated 2022):
≈ marks a conversion by molar mass, not a printed value. Read-outs that look alike come from different tables or passages of the source. Positions of bridges follow the written chain, without caps; N, C: chain ends. Non-standard residues stand in square brackets, D forms with d. Residues, ends and D or L forms follow the SMILES beside them. *: point of attachment. Cholyl = C[C@H](CCC(=O)*)[C@H]1CC[C@H]2[C@@H]3[C@H](O)C[C@@H]4C[C@H](O)CC[C@]4(C)[C@H]3C[C@H](O)[C@]12C; Decanoyl(3R-OH) = CCCCCCC[C@@H](O)CC(=O)*; dDab = NCC[C@@H](N)C(=O)O; Dab = NCC[C@H](N)C(=O)O; Dap = NC[C@H](N)C(=O)O

What was measured:
[1] = in vitro; conditions: human
Procedure, shortened: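 Viability is measured by resazurin reduction (5 μM, 2 h, 37 °C) after cells seeded at 4000 per well are treated with compound for 24 h.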

[2] = test system: K. pneumoniae ATCC 700603, MDR; conditions: ATCC 700603
Procedure, shortened: (§1)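 Mid-log cultures grown in Mueller Hinton broth at 37° C were tested by 2-fold broth microdilution at 5×10^5 CFU/mL final. Compounds were dissolved in water and tested over a final range of 32 to 0.015 μg/mL.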

[3] = test system: K. pneumoniae ATCC 13883; conditions: ATCC 13883
Procedure, shortened: as §1

[4] = test system: E. coli ATCC 25922; conditions: ATCC 25922
Procedure, shortened: as §1

[5] = test system: K. pneumoniae ATCC BAA-2146, NDM-1 pos; conditions: ATCC BAA-2146
Procedure, shortened: as §1

[6] = test system: K. pneumoniae GN_102 PmxR; conditions: GN 102 PmxR
Procedure, shortened: as §1

[7] = test system: S. aureus ATCC 25923, MSSA; conditions: ATCC 25923
Procedure, shortened: as §1

[8] = test system: P. aeruginosa GN_043, PmxR
Procedure, shortened: as §1

[9] = test system: P. aeruginosa ATCC 27853; conditions: ATCC 27853
Procedure, shortened: as §1

[10] = test system: A. baumannii GN_093 PmxR; conditions: GN 093 PmxR
Procedure, shortened: as §1

[11] = test system: P. aeruginosa GN_105, PmxR; conditions: GN 105, PmxR
Procedure, shortened: as §1

[12] = test system: K. pneumoniae GN_106, PmxR; conditions: GN 106, PmxR
Procedure, shortened: as §1

[13] = test system: A. baumannii ATCC 19606; conditions: ATCC 19606
Procedure, shortened: as §1

[14] = in vitro; conditions: human; remark: listed apart in the source
Procedure, shortened: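 HK2 cells were seeded at 2000 per well in DMEM/F12 with 10% FBS and left to attach for 24 h at 37 °C, 5% CO2. They were then exposed for 24 h to 3-fold peptide dilutions starting from 600 μM solutions in quadruplicate. LDH release was read at 450 nm, and CC50 was fitted from dose-response curves.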

[15] = in vitro; conditions: human; remark: listed apart in the source
Protocol: Cytotoxicity of the synthesised peptides was evaluated by comparison with commercially available colistin (polymyxin E), polymyxin B (Sigma chemical Co., St. Louis, Mo., U.S.A.) and synthetic octapeptin C4 by conducting lactate dehydrogenase (LDH) assay. CC50 values calculated based on curve fitting of dose dependent inhibition of cell growth represented the cytotoxicity of the peptide. Human kidney 2 (HK2) cells were seeded as 2000 cells per well in a 384 well cell culture plate in a final volume of 20 μL in DMEM/F12 medium (Invitrogen #11330057), in which 10% of FBS was added. Cells were incubated for 24 hours at 37° C., 5% CO2 to allow cells to attach to the plates. Similar conditions were employed for HEK293 and HepG2 cytotoxicity assays.
Cytotoxicity to HEK293 and HepG2 cells was determined using the resazurin assay (McMillian, M. K.; Li, L.; Parker, J. B.; Patel, L.; Zhong, Z.; Gunnett, J. W.; Powers, W. J.; Johnson, M. D. An improved resazurin-based cytotoxicity assay for hepatic cells; Cell Biol. Toxicol. 2002, 18, 157-173; O'Brien, J.; Wilson, I.; Orton, T.; Pognan, F. Investigation of the Alamar Blue (resazurin) fluorescent dye for the assessment of mammalian cell cytotoxicity. Eur. J. Biochem. 2000, 267, 5421-5426). In brief, HEK293 and HepG2 cells were seeded at 4000 cells/well in black-wall, clear-bottom 384-well plates (Corning, Australia) and incubated for 24 h at 37° C., 5% CO2. Compounds were then added into each well. After 24 h incubation, 5 μM resazurin was added per well and incubated at 37° C. for 2 h. Fluorescence intensity was then read using a Polarstar Omega with excitation/emission 560/590. The data was then analyzed using GraphPad Prism 6 software. CC50 values were determined using GraphPad Prism 6 software (Inc. La Jolla, Calif.).

Structure (SMILES)	CC50 at 24 h [1]	MIC K. pneumoniae ATCC 700603, MDR [2]	MIC K. pneumoniae ATCC 13883 [3]	MIC E. coli ATCC 25922 [4]	MIC K. pneumoniae ATCC BAA-2146, NDM-1 pos [5]	MIC K. pneumoniae GN_102 PmxR [6]	MIC S. aureus ATCC 25923, MSSA [7]	MIC P. aeruginosa GN_043, PmxR ([8]; P. aeruginosa GN_043, PmxR)	MIC P. aeruginosa ATCC 27853 [9]	MIC A. baumannii GN_093 PmxR [10]	MIC P. aeruginosa GN_105, PmxR [11]	MIC K. pneumoniae GN_106, PmxR [12]	MIC A. baumannii ATCC 19606 [13]	CC50 at 24 h [14]	CC50 at 24 h [15]	MIC P. aeruginosa GN_043, PmxR [8]
CCCCCCC[C@@H](O)CC(=O)N[C@H](CCN)C(=O)N[C@H]1CNC(=O)[C@H](CC(C)C)NC(=O)[C@H](CCN)NC(=O)[C@H](CCN)NC(=O)[C@H](CC(C)C)NC(=O)[C@@H](CC(C)C)NC(=O)[C@H](CCN)NC1=O [compound 633, 3(R)OH-nC9CO-D-Dab-cyc[L-Dap-L-Dab-D-Leu-L-Leu-L-Dab-L-Dab-L-Leu]] ({Decanoyl(3R-OH)}-[dDab][Dap][Dab][dL]L[Dab][Dab]L; lactam 2-C)	> 300 µM	32 µg/mL (≈ 32.1 µM)	>32 µg/mL	16 µg/mL (≈ 16.1 µM)	8 µg/mL (≈ 8.03 µM)	>32 µg/mL	>32 µg/mL	16 µg/mL (≈ 16.1 µM)	1 µg/mL (≈ 1 µM)	>32 µg/mL	>32 µg/mL	>32 µg/mL	>32 µg/mL	104 µM	> 300 µM	–
CCCCCCC[C@@H](O)CC(=O)N[C@H](CCN)C(=O)N[C@H]1CCNC(=O)[C@H](CC(C)C)NC(=O)[C@H](CCN)NC(=O)[C@H](CCN)NC(=O)[C@H](CC(C)C)NC(=O)[C@@H](Cc2ccc(O)cc2)NC(=O)[C@H](CCN)NC1=O [compound 5008, 3(R)OH-nC9CO-D-Dab-cyc[L-Dab-L-Dab-D-Tyr-L-Leu-L-Dab-L-Dab-L-Leu]] ({Decanoyl(3R-OH)}-[dDab][Dab][Dab][dY]L[Dab][Dab]L; lactam 2-C)	> 300 µM	8 µg/mL (≈ 7.54 µM)	16 µg/mL (≈ 15.1 µM)	8 µg/mL (≈ 7.54 µM)	16 µg/mL (≈ 15.1 µM)	16 µg/mL (≈ 15.1 µM)	32 µg/mL (≈ 30.2 µM)	2 µg/mL (≈ 1.89 µM)	1 µg/mL (≈ 0.943 µM)	32 µg/mL (≈ 30.2 µM)	16 µg/mL (≈ 15.1 µM)	16 µg/mL (≈ 15.1 µM)	32 µg/mL (≈ 30.2 µM)	106 µM	> 300 µM	–
CC(C)C[C@@H]1NC(=O)[C@H](CCN)NC(=O)[C@H](CCN)NC(=O)[C@H](CC(C)C)NC(=O)[C@@H](Cc2ccccc2)NC(=O)[C@H](CCN)NC(=O)[C@@H](NC(=O)[C@@H](CCN)NC(=O)CC[C@@H](C)[C@H]2CC[C@H]3[C@@H]4[C@H](O)C[C@@H]5C[C@H](O)CC[C@]5(C)[C@H]4C[C@H](O)[C@]23C)CCNC1=O [compound 5016, cholic acid-D-Dab-cyc[L-Dab-L-Dab-D-Phe-L-Leu-L-Dab-L-Dab-L-Leu]] (Cholyl-[dDab][Dab][Dab][dF]L[Dab][Dab]L; lactam 2-C)	48 µM	4 µg/mL (≈ 3.16 µM)	4 µg/mL (≈ 3.16 µM)	8 µg/mL (≈ 6.33 µM)	8 µg/mL (≈ 6.33 µM)	8 µg/mL (≈ 6.33 µM)	32 µg/mL (≈ 25.3 µM)	–	4 µg/mL (≈ 3.16 µM)	8 µg/mL (≈ 6.33 µM)	4 µg/mL (≈ 3.16 µM)	16 µg/mL (≈ 12.7 µM)	16 µg/mL (≈ 12.7 µM)	17 µM	46 µM	4 µg/mL (≈ 3.16 µM)
